Paper PMC9603770, “Broad-Spectrum Inhibitors against Class A, B, and C Type β-Lactamases to Block the Hydrolysis against Antibiotics: Kinetics and Structural Characterization” (Microbiology Spectrum, 2022)

Experiments:
Amp-C = biological target: T1, Amp-C (Escherichia coli, UniProt P00811); experiment: Fluorescence quenching; type: binding; details: 298 K
T1 construct: made in house; host or cells: E. coli (DH5 and BL21(DE3) named; pET-28a)
Procedure: Fluorescence quenching can be either dynamic or static in nature. The fluorescence intensity was calculated to understand the mechanism of protein quenching from all three classes of β-lactamase with D63, D2148, and D2573. The KSV (Stern–Volmer quenching constant; [Q] is the concentration of inhibitor) of all protein-inhibitor complexes was calculated from the slope of plot Fo/F (fluorescence intensities in the absence and presence of quencher) versus [Q], whereas number of binding sites (n) and Kb values for all combinations of proteins and inhibitors were determined by the slope and intercept of plot log (Fo/F – 1) versus log[Q] (Table 9). In this study, the KSV values were obtained, on the order of 10^2 to 10^5, for all enzyme-inhibitor complexes.
A Shimadzu RF-5301PC spectrofluorometer (Shimadzu Corporation, Kyoto, Japan) was used to measure the fluorescence spectra. Quenching was observed by measuring intrinsic fluorescence at 295 nm between 300 and 400 nm. The emission and excitation slits were both adjusted to 5 nm. Then, 2 μM each D2573, D2148, and D63 were added to a 3-mL sample containing 2 μM protein ([…]). All the fluorescence intensities were corrected for the inner filter effect. The determination of the number of binding sites (n) and binding constant (Kb) at 298 K temperature for all the protein-inhibitor combinations from the Stern-Volmer equation and modified Stern-Volmer equation (equations 4 and 5). (4) (F0)/F = 1 + Ksv[Q] (5) Log (F0 − F)/F= logKb + n log[Q]
Fo and F are the fluorescence intensities in the absence and presence of quencher (D63, D2148, D2573).

KPC-2 = biological target: T2, KPC-2 (Klebsiella pneumoniae, UniProt Q9F663); experiment: Steady-state kinetics of antibiotic hydrolysis with inhibitor; type: biochemical; details: inhibitor concentration as per IC50
T2 construct: made in house; host or cells: E. coli (DH5 and BL21(DE3) named; pET-28a)
T2 sequence (Q9F663 25-293, looked up, species assumed): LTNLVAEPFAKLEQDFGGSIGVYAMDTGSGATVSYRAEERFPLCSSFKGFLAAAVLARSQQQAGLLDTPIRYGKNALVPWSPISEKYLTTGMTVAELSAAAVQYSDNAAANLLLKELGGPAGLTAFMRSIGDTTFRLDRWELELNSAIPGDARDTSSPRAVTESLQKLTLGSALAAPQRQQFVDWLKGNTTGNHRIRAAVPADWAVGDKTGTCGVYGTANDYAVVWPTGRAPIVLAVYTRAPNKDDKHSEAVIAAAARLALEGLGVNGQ
Procedure: (§1) The enzyme kinetics parameters (Km, and kcat) for all six proteins/enzymes in combination with different antibiotics (cefotaxime, imipenem, and meropenem), were calculated. The concentration of inhibitors, D63, D2148, and D2573, was as per the IC50 value (Fig. 5); the kinetic parameters are listed in Table 8.
(§2) The steady-state kinetics of all six proteins were determined using the antibiotics:imipenem (Δε295 = −11,500 M^−1 cm^−1), meropenem (Δε297 = −10,940 M^−1 cm^−1), and cefotaxime (Δε264 = −27,250 M^−1 cm^−1). In this study, the D63, D2148, and D2573 inhibitors were tested. Hydrolysis of β-lactam antibiotics was detected by monitoring the variation in absorbance due to cleavage of the β-lactam ring in 50 mM, pH 7.0, phosphate buffer ([40], [41]). For hydrolysis of substrate (cefotaxime, imipenem, and meropenem) kinetics parameters, Km and kcat were calculated by using Michaelis Menten equations (equations 2 and 3). (2) V =Vmax [S]/Km + [S] (3) kcat = Vmax/E where E and S are the enzyme and substrate concentration, Km is the Michaelis-Mentent constant, kcat is the turnover number, and V and Vmax are the initial and maximum velocity of the hydrolysis, respectively.

SHV-1 = biological target: T3, SHV-1 (Klebsiella pneumoniae, UniProt P0AD64); experiment: as above; type: biochemical; details: inhibitor concentration as per IC50
T3 construct: made in house; host or cells: E. coli (DH5 and BL21(DE3) named; pET-28a)
T3 sequence (P0AD64 22-286): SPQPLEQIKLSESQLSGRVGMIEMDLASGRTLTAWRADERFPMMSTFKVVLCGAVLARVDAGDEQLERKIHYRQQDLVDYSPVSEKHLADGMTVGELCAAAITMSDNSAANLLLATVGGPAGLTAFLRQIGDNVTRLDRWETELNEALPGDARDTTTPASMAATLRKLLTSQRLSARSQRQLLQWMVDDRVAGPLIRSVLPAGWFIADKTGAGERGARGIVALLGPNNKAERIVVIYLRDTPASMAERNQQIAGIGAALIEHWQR
Procedure: as §1, §2

NDM-1 = biological target: T4, NDM-1 (Klebsiella pneumoniae, UniProt C7C422); experiment: as above; type: biochemical; details: inhibitor concentration as per IC50
T4 construct: made in house; host or cells: E. coli (DH5 and BL21(DE3) named)
T4 sequence (C7C422 29-270, looked up, species assumed): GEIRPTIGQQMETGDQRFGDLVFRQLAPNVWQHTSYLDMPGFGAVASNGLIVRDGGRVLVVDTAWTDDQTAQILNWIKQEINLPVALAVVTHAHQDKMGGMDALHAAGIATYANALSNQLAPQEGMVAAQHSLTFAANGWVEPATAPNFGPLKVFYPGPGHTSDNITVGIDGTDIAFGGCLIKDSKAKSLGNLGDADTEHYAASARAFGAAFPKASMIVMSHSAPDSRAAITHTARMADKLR
Procedure: as §1, §2

TEM-1 = biological target: T5, TEM-1 (Escherichia coli, UniProt P62593); experiment: as above; type: biochemical; details: inhibitor concentration as per IC50
T5 construct: made in house; host or cells: E. coli (DH5 and BL21(DE3) named; pET-28a)
T5 sequence (P62593 24-286 limits assumed): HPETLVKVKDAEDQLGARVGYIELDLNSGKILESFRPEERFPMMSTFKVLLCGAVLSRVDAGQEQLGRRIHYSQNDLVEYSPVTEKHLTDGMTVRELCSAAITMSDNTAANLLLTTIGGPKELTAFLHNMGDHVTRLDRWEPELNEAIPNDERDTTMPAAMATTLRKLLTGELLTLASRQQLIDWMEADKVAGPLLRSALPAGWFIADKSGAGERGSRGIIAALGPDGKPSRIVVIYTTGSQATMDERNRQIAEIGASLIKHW
Procedure: as §1, §2

CTX-M-15 = biological target: T6, CTX-M-15 (Escherichia coli, UniProt Q9EXV5); experiment: as above; type: biochemical; details: inhibitor concentration as per IC50
T6 construct: made in house; host or cells: E. coli (DH5 and BL21(DE3) named)
T6 sequence (Q9EXV5 29-291, species assumed): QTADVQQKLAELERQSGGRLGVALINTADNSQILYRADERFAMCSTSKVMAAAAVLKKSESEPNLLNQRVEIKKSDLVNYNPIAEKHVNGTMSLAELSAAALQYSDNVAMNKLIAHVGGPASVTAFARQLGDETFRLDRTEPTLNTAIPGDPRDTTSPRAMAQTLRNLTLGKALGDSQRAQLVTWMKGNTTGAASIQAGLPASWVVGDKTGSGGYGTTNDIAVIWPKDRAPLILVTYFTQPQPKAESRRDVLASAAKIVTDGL
Procedure: as §1, §2

MTT cytotoxicity assay = type: cell-based; details: mouse, NIH 3T3 cells, 50 μg/mL, read-out: cellular viability
Procedure: (§3) Cytotoxicity of lead molecules D2573, D2148, and D63 on NIH 3T3 cells was evaluated by MTT assay. The relative cellular viability of NIH 3T3 cells in the presence of each sample D2573, D2148, and D63 at different concentrations (12.5 μg/mL, 25 μg/mL, and 50 μg/mL) is shown in Fig. 6.
(§4) A cytotoxicity experiment was performed on NIH 3T3 cells. The NIH 3T3 cells were grown at 37°C in Dulbecco’s modified Eagle’s medium (DMEM) supplemented with 10% fetal bovine serum (FBS) and 1% antibiotic, penicillin-streptomycin (pen-strep), in a humidified incubator with 5% CO2. Sterile conditions were maintained at all times. Cells (~10^5 cells/well) were seeded in 96-well plates and allowed to adhere overnight. The cells were subsequently given different quantities of the lead compounds D2573, D2148, and D63 (12.5 μg/mL, 25 μg/mL, and 50 μg/mL, respectively). A conventional 3-(4,5-dimethylthiazol-2-yl)-2,5-diphenyl tetrazolium bromide (MTT) test was used to measure cell survival after 24 h. The supernatants were removed, and each well was filled with 90 μL of new medium and 10 μL of MTT (1 mg/mL) solution, which was then incubated for 4 h at 37°C. The formazan crystals generated during the reduction of MTT were dissolved in 150 μL of dimethyl sulfoxide (DMSO), and the absorbance was measured by measuring the optical density using a spectrophotometer at a wavelength of 570 nm.

NIH 3T3 cells = experiment: MTT cytotoxicity assay; type: cell-based; details: 24 h; for cellular viability: 50 μg/mL; for cytotoxicity (result in words): up to 50 μg/mL
Procedure: as §3, §4

T1 sequence (P00811 20-377): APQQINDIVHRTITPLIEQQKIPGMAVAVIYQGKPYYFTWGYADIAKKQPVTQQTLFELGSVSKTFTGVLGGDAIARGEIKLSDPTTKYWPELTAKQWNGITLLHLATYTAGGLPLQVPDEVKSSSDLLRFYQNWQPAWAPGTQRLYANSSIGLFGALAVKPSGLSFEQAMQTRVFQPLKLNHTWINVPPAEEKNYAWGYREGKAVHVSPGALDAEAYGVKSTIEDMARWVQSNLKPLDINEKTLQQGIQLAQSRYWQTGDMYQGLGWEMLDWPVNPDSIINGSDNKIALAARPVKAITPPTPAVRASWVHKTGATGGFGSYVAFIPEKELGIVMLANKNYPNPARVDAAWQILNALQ

Row | SMILES | n (number of binding sites) (Amp-C) | Km or Ki (KPC-2; cefotaxime) | kcat (KPC-2; cefotaxime) | Km or Ki (KPC-2; imipenem) | kcat (KPC-2; imipenem) | Km or Ki (KPC-2; meropenem) | kcat (KPC-2; meropenem) | Km or Ki (SHV-1; cefotaxime) | kcat (SHV-1; cefotaxime) | Km or Ki (SHV-1; imipenem) | kcat (SHV-1; imipenem) | Km or Ki (SHV-1; meropenem) | kcat (SHV-1; meropenem) | Km or Ki (NDM-1; cefotaxime) | kcat (NDM-1; cefotaxime) | Km or Ki (NDM-1; imipenem) | kcat (NDM-1; imipenem) | Km or Ki (NDM-1; meropenem) | kcat (NDM-1; meropenem) | Km or Ki (TEM-1; cefotaxime) | other results
1 | O=C(CN1C(=O)c2ccccc2S1(=O)=O)c1ccc(O)c(O)c1 [D63, 2-[2-(3,4-dihydroxyphenyl)-2-oxoethyl]-1H-1,2-benzisothiazole-1,1,3(2H)-trione] | 0.8493 | 713 μΜ | 0.384 S^−1 | 489.1 μΜ | 0.39 S^−1 | 511.7 μΜ | 0.45 S^−1 | 1,375 μΜ | 1.621 S^−1 | 851 μΜ | 1.525 S^−1 | 2,881 μΜ | 1.928 S^−1 | 410.8 μΜ | 1.833 S^−1 | 258.7 μΜ | 18.29 S^−1 | 1,052 μΜ | 9.282 S^−1 | 1,353 μΜ | kcat (TEM-1; cefotaxime): 1.051 S^−1; Km or Ki (TEM-1; imipenem): 673.1 μΜ; kcat (TEM-1; imipenem): 1.194 S^−1; Km or Ki (TEM-1; meropenem): 253.5 μΜ; kcat (TEM-1; meropenem): 0.6169 S^−1; Km or Ki (CTX-M-15; cefotaxime): 742.7 μΜ; kcat (CTX-M-15; cefotaxime): 0.7320 S^−1; Km or Ki (CTX-M-15; imipenem): 480.5 μΜ; kcat (CTX-M-15; imipenem): 5.572 S^−1; Km or Ki (CTX-M-15; meropenem): 228.4 μΜ; kcat (CTX-M-15; meropenem): 1.723 S^−1; viability at 24 h, 50 μg/mL (MTT cytotoxicity assay): ~78%; cellular viability (NIH 3T3 cells): > 75%; cytotoxicity (result in words) (NIH 3T3 cells): nontoxic
2 | O=C(c1ccccc1)C1CCN(C(=O)CN2C(=O)c3ccccc3C2=O)CC1 [D2148, 2-[2-(4-benzoylpiperidino) -2-oxoethyl]-1H-isoindole-1,3(2H)-dione] | 1.2792 | 358.7 μΜ | 3.293 S^−1 | 301.8 μΜ | 3.44 S^−1 | 491 μΜ | 2.47 S^−1 | 626.2 μΜ | 6.751 S^−1 | 618.4 μΜ | 5.535 S^−1 | 1,376 μΜ | 6.436 S^−1 | 1,939 μΜ | 15.88 S^−1 | 995.4 μΜ | 20.6 S^−1 | 986.4 μΜ | 9.201 S^−1 | 757.7 μΜ | kcat (TEM-1; cefotaxime): 6.332 S^−1; Km or Ki (TEM-1; imipenem): 689.7 μΜ; kcat (TEM-1; imipenem): 0.9853 S^−1; Km or Ki (TEM-1; meropenem): 7,537 μΜ; kcat (TEM-1; meropenem): 43.13 S^−1; Km or Ki (CTX-M-15; cefotaxime): 670.6 μΜ; kcat (CTX-M-15; cefotaxime): 838.6 S^−1; Km or Ki (CTX-M-15; imipenem): 675.9 μΜ; kcat (CTX-M-15; imipenem): 2,720 S^−1; Km or Ki (CTX-M-15; meropenem): 9,333 μΜ; kcat (CTX-M-15; meropenem): 17,974 S^−1; viability at 24 h, 50 μg/mL (MTT cytotoxicity assay): ~78%; cellular viability (NIH 3T3 cells): > 75%; cytotoxicity (result in words) (NIH 3T3 cells): nontoxic
3 | O=C(O)c1ccccc1C(=O)N1CCN(c2nc(-c3ccccc3)ns2)CC1 [D2573, 2-{[4-(3-phenyl-1,2,4-thiadiazol-5-yl)piperazino]carbonyl}benzoic acid] | 0.7042 | 549.1 μΜ | 0.454 S^−1 | 878.8 μΜ | 0.419 S^−1 | 2,786 μΜ | 1.02 S^−1 | 608 μΜ | 0.8431 S^−1 | 1,138 μΜ | 0.958 S^−1 | 979 μΜ | 1.232 S^−1 | 8,756 μΜ | 4.921 S^−1 | 301.3 μΜ | 3.875 S^−1 | 756.8 μΜ | 14.59 S^−1 | 905.2 μΜ | kcat (TEM-1; cefotaxime): 1.056 S^−1; Km or Ki (TEM-1; imipenem): 2,665 μΜ; kcat (TEM-1; imipenem): 1.454 S^−1; Km or Ki (TEM-1; meropenem): 2,129 μΜ; kcat (TEM-1; meropenem): 1.563 S^−1; Km or Ki (CTX-M-15; cefotaxime): 330.1 μΜ; kcat (CTX-M-15; cefotaxime): 0.9055 S^−1; kcat (CTX-M-15; imipenem): 1.454 S^−1; Km or Ki (CTX-M-15; meropenem): 469.8 μΜ; kcat (CTX-M-15; meropenem): 0.9091 S^−1; viability at 24 h, 50 μg/mL (MTT cytotoxicity assay): 82%; cellular viability (NIH 3T3 cells): > 75%; cytotoxicity (result in words) (NIH 3T3 cells): nontoxic
